Measured values published in patent US11472846B2, “Compositions and methods for treating diseases by inhibiting exosome release” (priority 2016, dated 2022).

Assays:
Type in all cases: cell-based, human
[1] = tested on: MDA-MB-231 breast cancer cells; assay: Exosome release by acetylcholinesterase (AchE) assay, MDA-MB-231; conditions: for average AChE concentration day 1 to 5: MDA-MB-231 cells, five-day treatment
Description: 1-6. Exosome isolation and purification. Exosomes were isolated from breast cancer cells by differential centrifugation as previously described (Ali SA. et al., 2010). Untreated tumor cells were used as a control. Briefly, the above treated and untreated cell culture supernatants were centrifuged at 400×g for 10 minutes. The supernatants were transferred to a clear tube and centrifuged at 10,000×g for 30 minutes. The supernatants from the second spin were ultracentrifuged at 200,000×g for 2 hours to pellet exosomes. Finally, the exosome pellets were re-suspended with PBS and stored at 4° C. until used for analysis.
1-7. Exosome characterization by acetylcholinesterase (AchE) assay. Purified exosomes were quantitated by measurement of AchE as described (Ellman et al., 1961). Briefly, a 100 mM dithibionitrobenzoic (DTNB) solution was prepared for use as a stock color indicator, and a 28.9 mg/mL acetylthiocholine iodide in PBS solution was prepared as a stock substrate. The stock substrate stock can be stored at −20° C. up to one month, while the color indicator can be stored at 4° C. for two weeks. A working solution was prepared by mixing 10 mL of PBS with 200 μL of Substrate and 500 μl of DTNB. 50 μL of each exosome sample was transferred to 96 well microtitre plates, and a standard curve was prepared using AchE from 0.98 mU/mL to 2000 mU/mL. After 50 μL of standards were added into separate wells, 200 μL of the working solution was added to all wells. After 20 min incubation, AchE activity was measured at 450 nm using a SpectroMax M5 fluorimeter.
7-5. Exosome isolation and purification. Exosomes were isolated from breast cancer cells and leukemia cells using the ExoQuick-TC Exosome Precipitation Kit (System Biosciencences [SBI], Mountain View Calif.) or the miRCURY Exosome Isolation Kit (EXIQON, Woburn, Mass.) according to the manufacturer's instructions. Untreated tumor cells were used as a control. Briefly, treated and untreated cell culture supernatants (10 mL) were centrifuged at 3000×g for 15 minutes. The resulting supernatants were transferred to a clear tube, 2 mL of ExoQuick-TC buffer was added, mixed and incubated overnight at 4° C. Following the incubation, the sample contents were centrifuged at 1500×g for 30 minutes, the supernatants were aspirated off, the pellets were centrifuged at 1500×g for 5 minutes and any further traces of supernatant were removed (SBI). Alternatively, treated and untreated cell culture supernatants were centrifuged at 10,000×g for 5 minutes to remove cell debris, supernatants (10 ml) were transferred into new tubes, and 4 mL of precipitation buffer (EXIQON) was added, and the contents were mixed and incubated at 4° C. overnight. Following the incubation, the sample contents were centrifuged at 10,000×g for 30 minutes (EXIQON). Exosome-containing pellets were re-suspended in PBS and stored at 4° C. or −80° C.
7-6. Exosome characterization by acetylcholinesterase (AchE) assay. Purified exosomes were quantitated by measurement of AchE as previously described (Huang et al., Oncotarget, 2017. 8(7): pp. 11302-11315). Briefly, 100 mM dithibionitrobenzoic (DTNB) was prepared as a stock color indicator, and prepared a stock substrate containing 28.9 mg/mL of acetylthiocholine iodide in PBS. Substrate stock can be stored at −20° C. up to one month; the stock color indicator can be stored at 4° C. for two weeks. A working solution was prepared by mixing 10 mL of PBS with 200 μL of substrate and 500 μl of DTNB. 50 μL of each exosome sample was transferred to a 96 well microtitre plate, and a standard curve for AchE concentrations was prepared using AchE from 0.98 mU/mL to 2000 mU/mL. After 50 μL of standards were added into separate wells, 200 μL of the working solution was added to each well. After a 20 min incubation, AchE activity was measured at 450 nm using a SpectroMax M5 fluorometer (FIG. 11).

MDA-MB-231 exosomes = assay: Western blot of exosomal proteins (Alix, vimentin, mortalin), MDA-MB-231; conditions: MDA-MB-231 cells, 48 hr treatment
Description: 7-7. Protein analysis by Western blotting. Exosomes were isolated from cell culture supernatants as described above. Protein concentrations were determined by measuring absorbance at 280 nm (Nanodrop 2000). Cultured cells were treated with PEG-SMR-Clu, SMR-CPP peptides, MKT-077, Omeprazole or DMA at 37° C. for 48 hr. To evaluate mortalin, vimentin and exosome expression, Western blot analysis was performed using anti-mortalin (Grp-75), anti-Vimentin and anti-Alix antibodies, respectively (FIG. 12).
Exosomes and cell lysates were prepared by incubating 5-10 min at 95° C. in sample buffer. The lysates were subjected to SDS-PAGE under reducing conditions (150 mM DTT) in 4-20% Criterion™ TGX™ precast gels (BioRad, Hercules, Calif.) and then transferred onto a nitrocellulose membrane (Bio-Rad, Hercules, Calif.). Nitrocellulose membranes were blocked with 5% skim milk (MedSupply, Atlanta, Ga.) in TBS containing 0.05% Tween 20 (TBST) for 1 h at room temperature. The membranes were treated with anti-mortalin (Grp-75) mAb or anti-α-tubulin mAb for cell lysates (FIG. 15, Panels A and B) or with anti-Alix and anti-vimentin or anti-mortalin for exosomes (FIG. 12), followed by peroxidase-conjugated goat anti-mouse IgG. Bands were developed with an ECL chemiluminescent substrate (Santa Cruz Biotechnology, Santa Cruz, Calif.) and exposed to an ImageQuant LAS 4000 imaging system (GE Healthcare, Piscataway, N.J. 08854).

MCF-7 cells = assay: Complement-mediated cell cytotoxicity assay (trypan blue), MCF-7; conditions: for cell death under complement-positive conditions: 280 nM PEG-SMRwt-Clu or 560 nM SMRwt-CPP 60 min, then anti-CXCR4 antibody and NHS 60 min; for cell death under complement-negative conditions: 280 nM PEG-SMRwt-Clu or 560 nM SMRwt-CPP, 60 min
Description: (§1) 7-9. Complement-mediated cell cytotoxicity assay. Complement-mediated cell cytotoxicity assays were performed as previously described (Reiter et al., Mol Immunol. (1992) 29(6): p. 771-81). Briefly, MCF-7, MDA-MB-231 and K562 cells were either mock-transfected or transfected with mortalin siRNA. Cells were incubated with 1 μg/ml of anti-CXCR4 antibody for 30 min at 4° C., followed by treatment with PEG-SMRwt-Clu peptide or PEG-SMRmut-Clu peptide or SMRwt-CPP peptide or SMRmut-CPP peptide alone, or treated with SMR peptide combined with complement from normal human serum (NHS) or heat-inactivated normal human serum (NIS) for 60 min at 37° C. Percentage of cells lysed were determined by a trypan blue exclusion assay using the TC10™ Automated Cell Counter (Bio-Rad, Richmond Calif.). (FIG. 14, FIG. 15, Panel D).

K562 cells = assay: Complement-mediated cell cytotoxicity assay (trypan blue), K562; conditions: for cell death under complement-positive conditions: 280 nM PEG-SMRwt-Clu or 560 nM SMRwt-CPP 60 min, then anti-CXCR4 antibody and NHS 60 min; for cell death under complement-negative conditions: 280 nM PEG-SMRwt-Clu or 560 nM SMRwt-CPP, 60 min
Description: as §1

| Sequence | average AChE concentration day 1 to 5 [1] [mU/mL] | Alix expression in exosomes (MDA-MB-231 exosomes) | Mortalin expression in exosomes (MDA-MB-231 exosomes) | Vimentin expression in exosomes (MDA-MB-231 exosomes) | cell death under complement-positive conditions (MCF-7 cells) [%] | cell death under complement-negative conditions (MCF-7 cells) [%] | cell death under complement-positive conditions (K562 cells) [%] | cell death under complement-negative conditions (K562 cells) [%] | AchE activity in exosomes ([1]; MDA-MB-231 cells treated 48 hr, control exosomes 118.48 mU/mL) [mU/mL] |
| --- | --- | --- | --- | --- | --- | --- | --- | --- | --- |
| VGFPVAAVGFPVGRKKRRQRRRPPQ [SMRwt-CPP] | 29 | significantly decreased | significantly decreased | significantly decreased | 29 | 2.1 | 23 | 4.3 |  |
| NXNVGFPVAAVGFPVHPLSKHPYWSQP (SEQ ID NO: 37) [PEG-SMRwt-Clu] | 42 | significantly decreased | significantly decreased | significantly decreased | 26 | 2.1 | 55 | 4.3 | 66.77 |
